In PubChem BioAssay (NCI):
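Values below derive from 48-hour exposures of cells grown in 96-well plates, with endpoints linearly interpolated between the two concentrations bracketing the appropriate inhibition level. Abbreviation: GI50, concentration required for 50% inhibition of growth. The concentration for full growth arrest is given as TGI.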

What was measured:
Experiment in all cases: NCI tumour cell line growth inhibition, 48 h
PC-3 prostate = test system: PC-3 prostate
KM12 colon = test system: KM12 colon
SF-295 CNS = test system: SF-295 CNS
HT29 colon = test system: HT29 colon
UACC-62 melanoma = test system: UACC-62 melanoma
RXF 393 renal = test system: RXF 393 renal
SNB-75 CNS = test system: SNB-75 CNS
SNB-19 CNS = test system: SNB-19 CNS
HCT-15 colon = test system: HCT-15 colon
MCF7 breast = test system: MCF7 breast
A549 NSCLC = test system: A549 NSCLC
COLO 205 colon = test system: COLO 205 colon
MDA-MB-231 breast = test system: MDA-MB-231 breast
DU-145 prostate = test system: DU-145 prostate
EKVX NSCLC = test system: EKVX NSCLC
SK-MEL-5 melanoma = test system: SK-MEL-5 melanoma
MDA-MB-468 breast = test system: MDA-MB-468 breast
SW-620 colon = test system: SW-620 colon
SK-OV-3 ovarian = test system: SK-OV-3 ovarian
ACHN renal = test system: ACHN renal
CAKI-1 renal = test system: CAKI-1 renal
HL-60(TB) leukemia = test system: HL-60(TB) leukemia
OVCAR-3 ovarian = test system: OVCAR-3 ovarian
NCI-H23 lung = test system: NCI-H23 lung
SN12C renal = test system: SN12C renal
T-47D breast = test system: T-47D breast
SR leukemia = test system: SR leukemia
OVCAR-8 ovarian = test system: OVCAR-8 ovarian
HOP-62 NSCLC = test system: HOP-62 NSCLC
LOX IMVI melanoma = test system: LOX IMVI melanoma
UO-31 renal = test system: UO-31 renal
M14 melanoma = test system: M14 melanoma
MDA-MB-435 = test system: MDA-MB-435
U251 CNS = test system: U251 CNS
IGROV1 ovarian = test system: IGROV1 ovarian
MOLT-4 leukemia = test system: MOLT-4 leukemia
SF-268 CNS = test system: SF-268 CNS
MALME-3M melanoma = test system: MALME-3M melanoma
CCRF-CEM leukemia = test system: CCRF-CEM leukemia
NCI-H460 lung = test system: NCI-H460 lung
TK-10 renal = test system: TK-10 renal
SK-MEL-28 melanoma = test system: SK-MEL-28 melanoma
SF-539 CNS = test system: SF-539 CNS
HCT-116 colon = test system: HCT-116 colon
K-562 leukemia = test system: K-562 leukemia
OVCAR-4 ovarian = test system: OVCAR-4 ovarian
HS 578T breast = test system: HS 578T breast
NCI-H522 lung = test system: NCI-H522 lung
NCI-H226 lung = test system: NCI-H226 lung
A498 renal = test system: A498 renal
786-0 renal = test system: 786-0 renal
BT-549 breast = test system: BT-549 breast
HOP-92 NSCLC = test system: HOP-92 NSCLC
OVCAR-5 ovarian = test system: OVCAR-5 ovarian
SK-MEL-2 melanoma = test system: SK-MEL-2 melanoma
HCC-2998 colon = test system: HCC-2998 colon
RPMI-8226 leukemia = test system: RPMI-8226 leukemia
UACC-257 melanoma = test system: UACC-257 melanoma

Work on `CC(=O)Nc1cccc(Nc2nc(NCc3ccccc3)c3ccccc3n2)c1` yielded a GI50 (PC-3 prostate) of 2.32 µM, a TGI (PC-3 prostate) of 8.15 µM and a GI50 (KM12 colon) of 2.11 µM. It also gave a TGI (KM12 colon) of 4.91 µM, a GI50 (SF-295 CNS) of 1.66 µM and a TGI (SF-295 CNS) of 3.05 µM. The GI50 (HT29 colon) was 1.84 µM, the TGI (HT29 colon) was 3.82 µM and the GI50 (UACC-62 melanoma) was 1.42 µM. The TGI (UACC-62 melanoma) was 2.74 µM, the GI50 (RXF 393 renal) was 1.56 µM and the TGI (RXF 393 renal) was 3.22 µM. The GI50 (SNB-75 CNS) was 1.42 µM, the TGI (SNB-75 CNS) was 3.51 µM and the GI50 (SNB-19 CNS) was 2.49 µM. It also gave a TGI (SNB-19 CNS) of 9.38 µM, a GI50 (HCT-15 colon) of 1.76 µM and a TGI (HCT-15 colon) of 3.45 µM. It also gave a GI50 (MCF7 breast) of 1.61 µM, a TGI (MCF7 breast) of 3.06 µM and a GI50 (A549 NSCLC) of 2.82 µM. It also gave a TGI (A549 NSCLC) of over 10 µM, a GI50 (COLO 205 colon) of 1.9 µM and a TGI (COLO 205 colon) of 3.53 µM. The GI50 (MDA-MB-231 breast) was 1.69 µM, the TGI (MDA-MB-231 breast) was 3.24 µM and the GI50 (DU-145 prostate) was 5.41 µM. It also gave a TGI (DU-145 prostate) of over 10 µM, a GI50 (EKVX NSCLC) of 4.01 µM and a TGI (EKVX NSCLC) of over 10 µM. It also gave a GI50 (SK-MEL-5 melanoma) of 1.47 µM, a TGI (SK-MEL-5 melanoma) of 3.12 µM and a GI50 (MDA-MB-468 breast) of 1.54 µM. For the same molecule, the TGI (MDA-MB-468 breast) was 3.01 µM, the GI50 (SW-620 colon) was 1.83 µM and the TGI (SW-620 colon) was 3.37 µM. It also gave a GI50 (SK-OV-3 ovarian) of over 10 µM, a TGI (SK-OV-3 ovarian) of over 10 µM and a GI50 (ACHN renal) of 1.77 µM. It also gave a TGI (ACHN renal) of 3.66 µM, a GI50 (CAKI-1 renal) of 1.82 µM and a TGI (CAKI-1 renal) of 4.4 µM. It also gave a GI50 (HL-60(TB) leukemia) of 3.58 µM, a TGI (HL-60(TB) leukemia) of over 10 µM and a GI50 (OVCAR-3 ovarian) of 1.74 µM. It also gave a TGI (OVCAR-3 ovarian) of 3.3 µM, a GI50 (NCI-H23 lung) of 2.5 µM and a TGI (NCI-H23 lung) of 9.11 µM. For the same molecule, the GI50 (SN12C renal) was over 10 µM, the TGI (SN12C renal) was over 10 µM and the GI50 (T-47D breast) was 1.65 µM. The TGI (T-47D breast) was 3.81 µM, the GI50 (SR leukemia) was 4.05 µM and the TGI (SR leukemia) was over 10 µM. It also gave a GI50 (OVCAR-8 ovarian) of 2.25 µM, a TGI (OVCAR-8 ovarian) of 5.17 µM and a GI50 (HOP-62 NSCLC) of 3.46 µM. For the same molecule, the TGI (HOP-62 NSCLC) was over 10 µM, the GI50 (LOX IMVI melanoma) was 1.6 µM and the TGI (LOX IMVI melanoma) was 2.98 µM. For the same molecule, the GI50 (UO-31 renal) was 1.73 µM, the TGI (UO-31 renal) was 5.41 µM and the GI50 (M14 melanoma) was 1.66 µM. The TGI (M14 melanoma) was 3.11 µM, the GI50 (MDA-MB-435) was 1.7 µM and the TGI (MDA-MB-435) was 3.26 µM. For the same molecule, the GI50 (U251 CNS) was 1.87 µM, the TGI (U251 CNS) was 3.93 µM and the GI50 (IGROV1 ovarian) was 3.15 µM. For the same molecule, the TGI (IGROV1 ovarian) was over 10 µM, the GI50 (MOLT-4 leukemia) was 3.08 µM and the TGI (MOLT-4 leukemia) was over 10 µM. The GI50 (SF-268 CNS) was over 10 µM, the TGI (SF-268 CNS) was over 10 µM and the GI50 (MALME-3M melanoma) was 1.48 µM. The TGI (MALME-3M melanoma) was 2.81 µM, the GI50 (CCRF-CEM leukemia) was 2.81 µM and the TGI (CCRF-CEM leukemia) was 7.87 µM. It also gave a GI50 (NCI-H460 lung) of 1.68 µM, a TGI (NCI-H460 lung) of 3.3 µM and a GI50 (TK-10 renal) of 3.12 µM. The TGI (TK-10 renal) was over 10 µM, the GI50 (SK-MEL-28 melanoma) was 1.61 µM and the TGI (SK-MEL-28 melanoma) was 3.02 µM. For the same molecule, the GI50 (SF-539 CNS) was 1.74 µM, the TGI (SF-539 CNS) was 3.15 µM and the GI50 (HCT-116 colon) was 1.66 µM. It also gave a TGI (HCT-116 colon) of 3.16 µM, a GI50 (K-562 leukemia) of 3.25 µM and a TGI (K-562 leukemia) of over 10 µM. For the same molecule, the GI50 (OVCAR-4 ovarian) was 1.79 µM, the TGI (OVCAR-4 ovarian) was 3.66 µM and the GI50 (HS 578T breast) was 2.16 µM. The TGI (HS 578T breast) was 5.96 µM, the GI50 (NCI-H522 lung) was 1.68 µM and the TGI (NCI-H522 lung) was 3.24 µM. The GI50 (NCI-H226 lung) was 1.69 µM, the TGI (NCI-H226 lung) was 4.15 µM and the GI50 (A498 renal) was over 10 µM. For the same molecule, the TGI (A498 renal) was over 10 µM, the GI50 (786-0 renal) was 1.83 µM and the TGI (786-0 renal) was 3.87 µM. For the same molecule, the GI50 (BT-549 breast) was over 10 µM, the TGI (BT-549 breast) was over 10 µM and the GI50 (HOP-92 NSCLC) was 1.52 µM. For the same molecule, the TGI (HOP-92 NSCLC) was 7.85 µM, the GI50 (OVCAR-5 ovarian) was 2.08 µM and the TGI (OVCAR-5 ovarian) was 5.67 µM. It also gave a GI50 (SK-MEL-2 melanoma) of 3.41 µM, a TGI (SK-MEL-2 melanoma) of over 10 µM and a GI50 (HCC-2998 colon) of 1.68 µM. The TGI (HCC-2998 colon) was 3.22 µM, the GI50 (RPMI-8226 leukemia) was 3.24 µM and the TGI (RPMI-8226 leukemia) was over 10 µM. For the same molecule, the GI50 (UACC-257 melanoma) was 1.86 µM and the TGI (UACC-257 melanoma) was 3.74 µM.
